Reference: patent US20240246941A1, “SUBSTITUTED 4-(3-AMINOPROP-1-YL)AMINOQUINOLINE ANALOGS AS MODULATORS OF MELANOMA-ASSOCIATED ANTIGEN 11 UBIQUITIN LIGASE” (ST. JUDE CHILDREN'S RESEARCH HOSPITAL, INC., priority 2020, published 2024)
Entries after “also recorded” stand apart in the source; their conditions may differ.

Assays:
[1] = system: HEK293FT cells stably expressing FLAG-vector or FLAG-MAGE-A11; assay: Cell viability alamarBlue assay, HEK293FT cells; type: cell-based; conditions: MAGE-A11 expressing HEK293FT cells versus vector control, 24 hours, listed as SJ521054
Protocol: Cell viability Assay. To assess cell viability after SJ521054 treatment, 1×10^4 cells/ml were treated with SJ521054 (0-40 μM) and incubated for 24 hours prior to changing the media and adding alamarBlue (Thermo Fisher Scientific) and incubating for 4 hours at 37° C. Plates were read by measuring the fluorescence with excitation wavelength at 540 nm and emission wavelength at 590 nm on an Enspire plate reader.

[2] = target: interaction between GST-MAGEA11 MHD and FAM-PCF11_4 peptide (MAGE-A11:PCF11) (Homo sapiens (Human), UniProt P43364); assay: TR-FRET dose response competition assay for disruption of MAGE-A11:PCF11 binding; conditions: read-out: IC50 by TR-FRET for disrupting MAGE-A11:PCF11 interaction
interaction between GST-MAGEA11 MHD and FAM-PCF11_4 peptide (MAGE-A11:PCF11), sequence (P43364 218-429): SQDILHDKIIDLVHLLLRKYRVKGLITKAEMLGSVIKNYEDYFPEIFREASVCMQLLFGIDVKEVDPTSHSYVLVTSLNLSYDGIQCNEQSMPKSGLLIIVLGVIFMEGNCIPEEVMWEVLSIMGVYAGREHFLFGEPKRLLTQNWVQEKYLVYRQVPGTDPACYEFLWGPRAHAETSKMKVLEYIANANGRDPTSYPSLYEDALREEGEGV
Outline: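 Competition TR-FRET at room temperature in 50 mM Tris pH 7.5, 20 mM MgCl2, 0.1 mg/ml BSA, 1 mM DTT: final 5 nM GST-MAGEA11 MHD, 5 nM Tb-anti-GST, 200 nM FAM-PCF11_4, 90 min. Ratio 520/490 nm converted to % inhibition; IC50 from sigmoidal fit.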

Question: How did the cell viability [1] turn out when `FC(F)(F)c1ccc2c(NCCCNCc3ccc4[nH]ccc4c3)ccnc2c1` [SJ000521054-02, N^1-((1H-Indol-5-yl)methyl)-N^3-(7-(trifluoromethyl)quinolin-4-yl)propane-1,3-diamine] was run?
Answer: Its cell viability is “decreased the viability; also recorded: reduces viability of MAGE-A11 expressing HEK293FT cells”.

Question: And the IC50 [2]?
Answer: Its IC50 is 400 nM.
